# Experimental data: patent publication US12157741B2, “Macrocyclic inhibitors of DYRK1A” (DANA-FARBER CANCER INSTITUTE, INC., priority 2018, dated 2024)
# Where two headings read alike, the source gives them in different places.
# How the values were obtained:
# Assay type in all cases: binding
# various enzymes [1] = target: various enzymes (Homo sapiens, UniProt O00238); details: compound 1 uM
# Method: (§1) Ambit profiling was conducted in accordance with the manufacturer's instructions.
# various enzymes [2] = target: various enzymes (Homo sapiens, UniProt P08922); details: compound 1 uM
# Method: as §1
# various enzymes [3] = target: various enzymes (Homo sapiens, UniProt P10721, A829P)
# Method: as §1
# various enzymes [4] = target: various enzymes (Homo sapiens, UniProt P20794); details: compound 1 uM
# Method: as §1
# various enzymes [5] = target: various enzymes (Homo sapiens, UniProt P27361); details: compound 1 uM
# Method: as §1
# various enzymes [6] = target: various enzymes (Homo sapiens, UniProt P36888, D835H)
# Method: as §1
# various enzymes [7] = target: various enzymes (Homo sapiens, UniProt P36888, D835V)
# Method: as §1
# various enzymes [8] = target: T1, various enzymes (Homo sapiens, UniProt P36888, F691L, form not given)
# T1 construct: other: FLT3(ITD, F691L); 1 uM; other: compound 1 uM
# Method: as §1
# various enzymes [9] = target: various enzymes (Homo sapiens, UniProt P37173); details: compound 1 uM
# Method: as §1
# various enzymes [10] = target: various enzymes (Homo sapiens, UniProt P49840); details: compound 1 uM
# Method: as §1
# various enzymes [11] = target: various enzymes (Homo sapiens, UniProt P49841); details: compound 1 uM
# Method: as §1
# various enzymes [12] = target: various enzymes (Homo sapiens, UniProt P52333); details: compound 1 uM
# Method: as §1
# various enzymes [13] = target: various enzymes (Homo sapiens, UniProt P54762); details: compound 1 uM
# Method: as §1
# various enzymes [14] = target: various enzymes (Homo sapiens, UniProt Q04771); details: compound 1 uM
# Method: as §1
# various enzymes [15] = target: various enzymes (Homo sapiens, UniProt Q12851); details: compound 1 uM
# Method: as §1
# various enzymes [16] = target: T2, various enzymes (Homo sapiens, UniProt Q13043); details: compound 1 uM
# T2 sequence (Q13043 1-487): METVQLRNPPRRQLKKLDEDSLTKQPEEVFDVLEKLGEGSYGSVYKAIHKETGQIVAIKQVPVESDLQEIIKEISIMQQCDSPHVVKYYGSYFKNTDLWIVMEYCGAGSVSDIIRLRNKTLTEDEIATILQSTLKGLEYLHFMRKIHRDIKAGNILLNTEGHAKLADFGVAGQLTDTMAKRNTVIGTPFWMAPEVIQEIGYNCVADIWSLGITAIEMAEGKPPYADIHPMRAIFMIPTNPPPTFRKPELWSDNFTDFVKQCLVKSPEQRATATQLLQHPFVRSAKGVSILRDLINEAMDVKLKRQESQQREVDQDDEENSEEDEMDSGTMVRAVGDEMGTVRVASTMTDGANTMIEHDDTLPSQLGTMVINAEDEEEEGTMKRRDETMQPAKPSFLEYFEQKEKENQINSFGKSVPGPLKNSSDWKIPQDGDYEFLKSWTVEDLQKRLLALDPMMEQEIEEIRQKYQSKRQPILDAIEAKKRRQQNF
# Method: as §1
# various enzymes [17] = target: various enzymes (Homo sapiens, UniProt Q13153); details: compound 1 uM
# Method: as §1
# various enzymes [18] = target: various enzymes (Homo sapiens, UniProt Q13233); details: compound 1 uM
# Method: as §1
# various enzymes [19] = target: various enzymes (Homo sapiens, UniProt Q15375); details: compound 1 uM
# Method: as §1
# various enzymes [20] = target: various enzymes (Homo sapiens, UniProt Q15835); details: compound 1 uM
# Method: as §1
# various enzymes [21] = target: various enzymes (Homo sapiens, UniProt Q59H18); details: compound 1 uM
# Method: as §1
# various enzymes [22] = target: various enzymes (Homo sapiens, UniProt Q86YV6); details: compound 1 uM
# Method: as §1
# various enzymes [23] = target: various enzymes (Homo sapiens, UniProt Q8NE63); details: compound 1 uM
# Method: as §1
# various enzymes [24] = target: various enzymes (Homo sapiens, UniProt Q92772); details: compound 1 uM
# Method: as §1
# various enzymes [25] = target: T3, various enzymes (Homo sapiens, UniProt Q96L34); details: compound 1 uM
# T3 sequence (Q96L34 1-752): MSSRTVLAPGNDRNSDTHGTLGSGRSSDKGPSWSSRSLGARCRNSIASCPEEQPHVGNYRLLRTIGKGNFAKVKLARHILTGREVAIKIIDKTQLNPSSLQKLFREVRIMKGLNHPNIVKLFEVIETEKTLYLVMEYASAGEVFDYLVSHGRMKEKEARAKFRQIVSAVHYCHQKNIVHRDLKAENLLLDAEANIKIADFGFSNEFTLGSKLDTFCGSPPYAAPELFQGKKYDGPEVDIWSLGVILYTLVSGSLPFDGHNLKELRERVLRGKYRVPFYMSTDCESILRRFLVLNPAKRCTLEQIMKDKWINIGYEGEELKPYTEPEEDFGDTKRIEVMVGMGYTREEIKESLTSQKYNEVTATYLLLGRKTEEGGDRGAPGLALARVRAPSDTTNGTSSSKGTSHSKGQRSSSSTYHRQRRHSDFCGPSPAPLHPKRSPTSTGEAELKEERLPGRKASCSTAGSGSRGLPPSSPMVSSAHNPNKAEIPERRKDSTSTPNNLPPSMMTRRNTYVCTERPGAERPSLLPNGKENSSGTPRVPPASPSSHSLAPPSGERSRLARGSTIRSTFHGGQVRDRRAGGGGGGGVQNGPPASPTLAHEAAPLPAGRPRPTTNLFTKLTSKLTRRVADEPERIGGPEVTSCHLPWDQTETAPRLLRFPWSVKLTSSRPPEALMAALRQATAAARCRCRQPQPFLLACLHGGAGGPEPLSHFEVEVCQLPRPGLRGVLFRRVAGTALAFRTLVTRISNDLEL
# Method: as §1
# various enzymes [26] = target: various enzymes (Homo sapiens, UniProt Q99683); details: compound 1 uM
# Method: as §1
# various enzymes [27] = target: various enzymes (Homo sapiens, UniProt Q9Y2H1); details: compound 1 uM
# Method: as §1
# Chain of various enzymes (Homo sapiens, UniProt Q9Y2H1) (Q9Y2H1 whole entry): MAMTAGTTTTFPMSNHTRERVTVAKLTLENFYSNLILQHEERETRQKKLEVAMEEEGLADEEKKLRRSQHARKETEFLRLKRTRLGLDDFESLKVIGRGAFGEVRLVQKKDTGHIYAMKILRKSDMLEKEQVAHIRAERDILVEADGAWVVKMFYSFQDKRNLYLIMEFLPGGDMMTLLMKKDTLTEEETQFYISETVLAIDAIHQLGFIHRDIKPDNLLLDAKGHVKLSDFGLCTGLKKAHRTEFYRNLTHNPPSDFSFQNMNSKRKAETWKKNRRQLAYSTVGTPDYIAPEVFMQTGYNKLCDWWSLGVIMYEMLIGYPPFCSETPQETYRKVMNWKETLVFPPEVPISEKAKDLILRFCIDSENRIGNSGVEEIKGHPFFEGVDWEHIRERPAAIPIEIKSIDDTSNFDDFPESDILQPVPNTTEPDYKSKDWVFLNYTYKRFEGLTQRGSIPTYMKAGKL
# Chain of various enzymes (Homo sapiens, UniProt P49841) (P49841 whole entry): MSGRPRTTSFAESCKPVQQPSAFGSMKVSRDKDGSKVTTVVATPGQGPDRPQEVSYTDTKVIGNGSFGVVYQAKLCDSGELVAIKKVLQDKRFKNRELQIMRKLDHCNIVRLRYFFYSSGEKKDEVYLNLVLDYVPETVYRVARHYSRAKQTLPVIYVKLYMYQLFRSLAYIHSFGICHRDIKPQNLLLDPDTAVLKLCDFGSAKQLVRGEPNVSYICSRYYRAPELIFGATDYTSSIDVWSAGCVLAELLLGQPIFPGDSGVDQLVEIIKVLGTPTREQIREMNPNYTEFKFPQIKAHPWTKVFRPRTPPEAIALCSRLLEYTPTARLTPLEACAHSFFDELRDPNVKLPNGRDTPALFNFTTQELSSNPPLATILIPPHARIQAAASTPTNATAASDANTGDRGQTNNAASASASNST
# Chain of various enzymes (Homo sapiens, UniProt Q15835) (Q15835 whole entry): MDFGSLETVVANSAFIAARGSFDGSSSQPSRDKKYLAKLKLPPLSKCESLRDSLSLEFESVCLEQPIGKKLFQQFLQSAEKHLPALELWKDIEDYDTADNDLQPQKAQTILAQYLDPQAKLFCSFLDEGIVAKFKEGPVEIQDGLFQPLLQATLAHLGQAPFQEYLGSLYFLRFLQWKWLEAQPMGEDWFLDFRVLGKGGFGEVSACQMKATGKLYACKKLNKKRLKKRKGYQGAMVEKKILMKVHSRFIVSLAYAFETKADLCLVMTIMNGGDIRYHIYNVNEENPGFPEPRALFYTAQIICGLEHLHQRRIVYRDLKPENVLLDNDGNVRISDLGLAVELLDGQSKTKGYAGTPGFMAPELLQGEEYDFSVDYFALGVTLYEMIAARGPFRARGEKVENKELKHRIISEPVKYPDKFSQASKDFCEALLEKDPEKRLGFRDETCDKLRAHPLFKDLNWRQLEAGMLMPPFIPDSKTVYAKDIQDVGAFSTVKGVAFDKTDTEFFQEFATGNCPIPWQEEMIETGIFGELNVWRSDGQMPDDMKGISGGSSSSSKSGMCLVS
# Chain of various enzymes (Homo sapiens, UniProt P10721, A829P) (P10721 26-976 A829P): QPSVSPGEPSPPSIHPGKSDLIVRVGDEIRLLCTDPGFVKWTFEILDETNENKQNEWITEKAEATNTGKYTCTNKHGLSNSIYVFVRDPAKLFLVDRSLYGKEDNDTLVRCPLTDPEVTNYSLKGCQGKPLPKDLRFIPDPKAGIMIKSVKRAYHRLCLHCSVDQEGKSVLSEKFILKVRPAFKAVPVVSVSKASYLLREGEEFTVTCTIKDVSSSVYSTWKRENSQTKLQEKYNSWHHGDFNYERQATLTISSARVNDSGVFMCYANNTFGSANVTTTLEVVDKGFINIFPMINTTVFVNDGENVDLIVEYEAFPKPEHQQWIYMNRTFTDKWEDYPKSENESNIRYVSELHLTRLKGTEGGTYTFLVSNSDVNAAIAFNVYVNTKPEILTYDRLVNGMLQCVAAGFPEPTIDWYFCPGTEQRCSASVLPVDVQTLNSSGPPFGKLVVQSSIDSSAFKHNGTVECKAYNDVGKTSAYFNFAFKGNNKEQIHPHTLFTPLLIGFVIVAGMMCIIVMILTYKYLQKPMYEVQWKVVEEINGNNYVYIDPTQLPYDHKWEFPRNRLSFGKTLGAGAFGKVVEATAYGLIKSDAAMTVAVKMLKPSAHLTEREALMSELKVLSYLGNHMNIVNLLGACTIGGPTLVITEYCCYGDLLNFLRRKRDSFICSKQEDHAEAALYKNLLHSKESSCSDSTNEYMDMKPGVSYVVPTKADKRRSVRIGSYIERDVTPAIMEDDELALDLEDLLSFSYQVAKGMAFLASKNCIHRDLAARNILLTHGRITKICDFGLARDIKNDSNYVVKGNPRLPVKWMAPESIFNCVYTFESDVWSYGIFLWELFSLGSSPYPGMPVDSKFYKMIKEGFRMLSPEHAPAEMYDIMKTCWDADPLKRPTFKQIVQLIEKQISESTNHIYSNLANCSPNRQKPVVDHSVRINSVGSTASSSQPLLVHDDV
# Chain of various enzymes (Homo sapiens, UniProt Q15375) (Q15375 28-998): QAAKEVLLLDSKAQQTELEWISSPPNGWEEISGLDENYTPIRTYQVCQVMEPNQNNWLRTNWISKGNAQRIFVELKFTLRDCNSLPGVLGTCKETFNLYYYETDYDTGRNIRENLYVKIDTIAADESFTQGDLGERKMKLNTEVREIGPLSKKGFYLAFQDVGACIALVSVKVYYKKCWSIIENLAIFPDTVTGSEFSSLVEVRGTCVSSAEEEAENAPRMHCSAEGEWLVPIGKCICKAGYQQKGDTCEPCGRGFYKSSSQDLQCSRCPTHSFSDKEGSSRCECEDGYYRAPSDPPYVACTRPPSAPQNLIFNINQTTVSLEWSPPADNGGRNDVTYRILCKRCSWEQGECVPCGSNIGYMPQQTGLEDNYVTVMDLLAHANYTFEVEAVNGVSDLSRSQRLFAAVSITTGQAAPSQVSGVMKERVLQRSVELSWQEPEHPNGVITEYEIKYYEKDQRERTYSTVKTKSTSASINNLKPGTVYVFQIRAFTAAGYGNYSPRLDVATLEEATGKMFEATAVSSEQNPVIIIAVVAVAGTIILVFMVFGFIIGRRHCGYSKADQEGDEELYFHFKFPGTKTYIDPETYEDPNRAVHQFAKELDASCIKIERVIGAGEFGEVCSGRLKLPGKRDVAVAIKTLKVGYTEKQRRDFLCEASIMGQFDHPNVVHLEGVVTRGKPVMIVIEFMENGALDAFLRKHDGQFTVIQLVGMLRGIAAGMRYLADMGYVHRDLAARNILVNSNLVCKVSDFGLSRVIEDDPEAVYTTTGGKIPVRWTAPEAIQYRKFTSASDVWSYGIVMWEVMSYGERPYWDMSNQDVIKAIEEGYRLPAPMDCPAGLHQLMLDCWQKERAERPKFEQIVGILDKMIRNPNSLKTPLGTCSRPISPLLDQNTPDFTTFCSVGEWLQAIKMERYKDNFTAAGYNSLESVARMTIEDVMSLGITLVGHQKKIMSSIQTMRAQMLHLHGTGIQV
# Chain of various enzymes (Homo sapiens, UniProt P27361) (P27361 whole entry): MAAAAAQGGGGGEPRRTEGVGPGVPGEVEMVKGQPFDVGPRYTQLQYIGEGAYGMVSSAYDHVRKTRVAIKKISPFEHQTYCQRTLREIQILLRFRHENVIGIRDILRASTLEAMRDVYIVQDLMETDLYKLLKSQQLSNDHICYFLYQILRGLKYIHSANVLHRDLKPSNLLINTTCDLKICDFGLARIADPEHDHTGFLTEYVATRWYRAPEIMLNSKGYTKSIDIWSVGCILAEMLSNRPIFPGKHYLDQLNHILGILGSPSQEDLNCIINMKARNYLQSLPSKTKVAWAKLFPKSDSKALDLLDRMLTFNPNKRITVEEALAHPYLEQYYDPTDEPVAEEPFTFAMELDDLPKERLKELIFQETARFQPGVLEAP
# Chain of various enzymes (Homo sapiens, UniProt P52333) (P52333 whole entry): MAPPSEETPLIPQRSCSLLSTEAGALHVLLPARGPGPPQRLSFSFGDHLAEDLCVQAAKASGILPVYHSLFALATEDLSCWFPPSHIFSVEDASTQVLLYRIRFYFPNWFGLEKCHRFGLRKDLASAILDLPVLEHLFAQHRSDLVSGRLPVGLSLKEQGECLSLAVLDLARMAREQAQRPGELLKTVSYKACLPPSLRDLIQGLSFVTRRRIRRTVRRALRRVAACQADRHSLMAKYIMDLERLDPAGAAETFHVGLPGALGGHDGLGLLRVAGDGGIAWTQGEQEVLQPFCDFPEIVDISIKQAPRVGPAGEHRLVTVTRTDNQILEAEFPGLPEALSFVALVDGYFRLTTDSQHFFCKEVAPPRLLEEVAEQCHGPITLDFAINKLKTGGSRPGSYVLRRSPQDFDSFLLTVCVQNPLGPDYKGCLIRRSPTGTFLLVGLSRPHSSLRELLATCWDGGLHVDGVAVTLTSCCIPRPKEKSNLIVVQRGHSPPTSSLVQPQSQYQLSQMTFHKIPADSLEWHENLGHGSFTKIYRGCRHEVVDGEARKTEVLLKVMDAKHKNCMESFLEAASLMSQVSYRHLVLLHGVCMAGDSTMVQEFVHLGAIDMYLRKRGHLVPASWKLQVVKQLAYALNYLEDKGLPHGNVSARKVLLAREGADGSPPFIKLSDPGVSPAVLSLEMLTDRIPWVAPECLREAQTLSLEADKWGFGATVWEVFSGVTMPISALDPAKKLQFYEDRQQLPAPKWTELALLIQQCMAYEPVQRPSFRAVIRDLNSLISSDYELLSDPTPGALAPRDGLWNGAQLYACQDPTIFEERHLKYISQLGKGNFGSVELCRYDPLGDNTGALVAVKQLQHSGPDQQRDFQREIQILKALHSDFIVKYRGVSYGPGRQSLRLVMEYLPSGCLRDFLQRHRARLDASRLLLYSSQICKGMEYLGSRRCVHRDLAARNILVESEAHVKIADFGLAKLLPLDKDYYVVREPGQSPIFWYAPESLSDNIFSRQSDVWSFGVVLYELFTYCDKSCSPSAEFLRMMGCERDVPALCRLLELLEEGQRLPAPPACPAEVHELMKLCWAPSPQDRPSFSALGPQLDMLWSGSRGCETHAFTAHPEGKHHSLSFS
SMILES,Ambit profiling: BMPR1B (various enzymes [1]),Ambit profiling: ROS1 (various enzymes [2]),Ambit profiling: MAK (various enzymes [4]),Ambit profiling: ERK1 (various enzymes [5]),Ambit profiling: TGFBR2 (various enzymes [9]),Ambit profiling: GSK3A (various enzymes [10]),Ambit profiling: GSK3B (various enzymes [11]),Ambit profiling: JAK3(JH1domain-catalytic) (various enzymes [12]),Ambit profiling: EPHB1 (various enzymes [13]),Ambit profiling: ACVR1 (various enzymes [14]),Ambit profiling: MAP4K2 (various enzymes [15]),Ambit profiling: MST1 (various enzymes [16]),Ambit profiling: PAK1 (various enzymes [17]),Ambit profiling: MAP3K1 (various enzymes [18]),Ambit profiling: EPHA7 (various enzymes [19]),Ambit profiling: GRK1 (various enzymes [20]),Ambit profiling: TNNI3K (various enzymes [21]),Ambit profiling: MYLK4 (various enzymes [22]),Ambit profiling: HIPK4 (various enzymes [23]),Ambit profiling: CDKL2 (various enzymes [24]),also measured
"CC(C)N1Cc2nn(C)cc2-c2cnc3[nH]cc(c3c2)-c2cn(nc2C(F)(F)F)CCCC1=O [Compound 45, (Z)-5-isopropyl-31-methyl-13-(trifluoromethyl)-11H,21H,31H-5-aza-2(3,5)-pyrrolo[2,3-b]pyridina-1(4,1),3(4,3)-dipyrazolacyclononaphan-6-one]",6.8,11,34,100,91,17,24,0,51,18,3.9,2.8,69,95,59,17,72,100,2.1,14,"Ambit profiling: KIT(A829P) (various enzymes [3]; compound 1 uM): 14; Ambit profiling: FLT3(D835H) (various enzymes [6]; compound 1 uM): 1.6; Ambit profiling: FLT3(D835V) (various enzymes [7]; compound 1 uM): 0; Ambit profiling: FLT3(ITD, F691L) (various enzymes [8]; compound 1 uM): 0; Ambit profiling: MARK4 (various enzymes [25]): 28; Ambit profiling: ASK1 (various enzymes [26]): 100; Ambit profiling: NDR2 (various enzymes [27]): 92"
"COc1c2c(nn1C)CN(C(C)C)C(=O)CCCn1cc(c(C(F)(F)F)n1)-c1c[nH]c3ncc-2cc13 [Compound 50, (Z)-5-isopropyl-35-methoxy-31-methyl-13-(trifluoromethyl)-11H,21H,31H-5-aza-2(3,5)-pyrrolo[2,3-b]pyridina-1(4,1),3(4,3)-dipyrazolacyclononaphan-6-one]",5.1,5.1,77,95,20,93,90,0,48,14,44,2.2,76,72,50,44,72,77,1.5,20,"Ambit profiling: KIT(A829P) (various enzymes [3]): 19; Ambit profiling: FLT3(D835H) (various enzymes [6]): 2.8; Ambit profiling: FLT3(D835V) (various enzymes [7]): 0; Ambit profiling: FLT3(ITD, F691L) (various enzymes [8]): 0; Ambit profiling: MARK4 (various enzymes [25]): 55; Ambit profiling: ASK1 (various enzymes [26]): 100; Ambit profiling: NDR2 (various enzymes [27]): 78"
